From ChEMBL document CHEMBL5357052, “Diastereomers of Steroidal Alkaloids with Cytotoxic Activities against Non-Small-Cell Lung Cancer from the Bulbs of Fritillaria sinica” (2024) come the findings set out here.

Holding throughout (format): functional
The subject of one assay is A549. In words: Cytotoxicity against human A549 cells assessed as reduction in cell growth incubated for 48 hrs by CCK8 method.
Another assay deals with NCI-H460. The assay is described as follows: Cytotoxicity against human NCI-H460 cells assessed as reduction in cell growth incubated for 48 hrs by CCK8 method.
The next assay deals with RAW264.7. In words: Antiinflammatory activity in mouse RAW264.7 cells assessed as inhibition of LPS induced NO production at 10 uM preincubated for 24 hrs followed by LPS stimulation and measured after 24 hrs by Griess assay relative to control. More on the design: scale not given: the % may be the effect or the level left. The settings on record: time 48 hrs.
Another assay deals with H9c2. In words: Antioxidant activity against H2O2 treated rat H9c2 cells assessed as inhibition of MDA level at 10 uM incubated for 4 hrs followed by H2O2 administration by colorimetric assay relative to control. More on the design: scale not given: the % may be the effect or the level left.

Structures are written as SMILES.

`C[C@H]1CC[C@H]2[C@H](C)[C@H]3CC[C@@H]4[C@@H](C[C@H]5[C@H]4C[C@@H](O)[C@H]4C[C@@H](O)CC[C@@]45C)[C@@H]3CN2C1`: the CC50 with A549 was 19 µM; with NCI-H460 it was 10 µM. The results for the Activity in the assay with RAW264.7 and in the assay on H9c2 were 8.3% and 38%, respectively.
The matching figures for `C[C@H]1CC[C@H]2[C@H](C)[C@@H]3CC[C@@H]4[C@@H](C[C@H]5[C@H]4CC(=O)[C@H]4C[C@@H](O)CC[C@@]45C)[C@@H]3CN2C1`: 30 µM, 46 µM, 23% and 39%.
For `C[C@H]1CC[C@H]2[C@H](C)[C@H]3CC[C@@H]4[C@@H](C[C@H]5[C@H]4CC(=O)[C@H]4C[C@@H](O)CC[C@@]45C)[C@@H]3CN2C1` the same measures were 22 µM, 37 µM, 42% and 34%.
`C[C@@H]1CC[C@H]2[C@H](C)[C@H]3CC[C@@H]4[C@@H](C[C@H]5[C@H]4C[C@H](O)[C@H]4C[C@@H](O)CC[C@@]45C)[C@H]3C[N+]2([O-])C1` (stereo not given in full): the CC50 in the assay with A549 was determined as 38 µM; in the assay with NCI-H460 it was 45 µM. Besides, the Activity in the assay with RAW264.7 is 40%; in the assay on H9c2 it was 15%.
Turning to `C[C@@H]1CC[C@H]2[C@H](C)[C@H]3CC[C@@H]4[C@@H](C[C@H]5[C@H]4CC(=O)[C@H]4C[C@@H](O)CC[C@@]45C)[C@H]3C[N+]2([O-])C1` (stereo not given in full), the CC50 in the assay on A549 is 9.5 µM; with NCI-H460, 11 µM. The Activity with RAW264.7 came out at 1.4%; with H9c2, 39%.
The matching figures for `C[C@H]1CC[C@H]2[C@H](C)[C@H]3CC[C@@H]4[C@@H](C[C@H]5[C@H]4C[C@H](O)[C@H]4C[C@@H](O)CC[C@@]45C)[C@@H]3CN2C1`: 11 µM, 20 µM, 57% and 29%.
For `C[C@@H]1CC[C@H]2[C@H](C)[C@H]3CC[C@@H]4[C@@H](C[C@H]5[C@H]4C[C@H](O)[C@H]4C[C@@H](O)CC[C@@]45C)[C@@H]3C[N+]2([O-])C1` (stereo not given in full) the same measures were 35 µM, 45 µM, 24% and 48%.
The matching figures for `C[C@@H]1CC[C@H]2[C@H](C)[C@H]3CC[C@@H]4[C@@H](C[C@H]5[C@H]4C[C@H](O)[C@H]4C[C@@H](O)CC[C@@]45C)[C@@H]3CN2C1`: 23 µM, 40 µM, 7.9% and 15%.
As for `C[C@@H]1CC[C@H]2[C@H](C)[C@H]3CC[C@@H]4[C@@H](C[C@H]5[C@H]4CC(=O)[C@H]4C[C@@H](O[C@@H]6O[C@H](CO)[C@@H](O)[C@H](O)[C@H]6O)CC[C@@]45C)[C@H]3CN2C1`, the CC50 with A549 stood at 19 µM; in the assay with NCI-H460 it was 59 µM. The figures for the Activity in the assay with RAW264.7 and in the assay with H9c2 were 7.8% and 53%, respectively.
Turning to `C[C@@H]1CC[C@H]2[C@H](C)[C@@H]3CC[C@@H]4[C@@H](C[C@H]5[C@H]4CC(=O)[C@H]4C[C@@H](O)CC[C@@]45C)[C@@H]3CN2C1`, the results for the CC50 in the assay on A549 and in the assay on NCI-H460 were 31 µM and 37 µM, respectively. Also, the Activity in the assay with RAW264.7 is reported as 47%; with H9c2, 21%.
The matching figures for `C[C@H]1CC[C@H]2[C@H](C)c3ccc4c(c3CN2C1)C[C@H]1[C@H]4C[C@H](O)[C@H]2C[C@@H](O)CC[C@@]21C`: 34 µM, 65 µM, 2.1% and 43%.
The matching figures for `C[C@@H]1CC[C@H]2[C@H](C)[C@H]3CC[C@@H]4[C@@H](C[C@H]5[C@H]4CC(=O)[C@H]4C[C@@H](O)CC[C@@]45C)[C@@H]3CN2C1`: 29 µM, 49 µM, -1.3% and 20%.
The matching figures for `CC1=C2C[C@H]3[C@@H](CC(=O)[C@H]4C[C@@H](O)CC[C@@]43C)[C@@H]2CC[C@]12O[C@@H]1C[C@H](C)CN[C@H]1[C@H]2C`: 9.6 µM, 17 µM, 66% and 72%.
Turning to `C[C@@H]1CC[C@H]2[C@@H](C)[C@H]3CC[C@@H]4[C@@H](C[C@H]5[C@H]4CC(=O)[C@H]4C[C@@H](O[C@@H]6O[C@H](CO)[C@@H](O)[C@H](O)[C@H]6O)CC[C@@]45C)[C@@H]3CN2C1`, the CC50 in the assay on A549 worked out at 39 µM; in the assay on NCI-H460 it was 54 µM. Besides, the Activity is given as 6.1% in the assay with RAW264.7 and 24% in the assay on H9c2.
Take `C[C@@H]1CC[C@H]2[C@H](C)c3ccc4c(c3CN2C1)C[C@H]1[C@H]4C[C@H](O)[C@H]2C[C@@H](O)CC[C@@]21C`: the half-maximal cytotoxic concentration (CC50) amounted to 52 µM in the assay on A549 and 65 µM in the assay on NCI-H460. Further, the Activity is on record as 45% in the assay on RAW264.7 and 58% with H9c2.
The matching figures for `CC1=C2C[C@H]3[C@@H](CC(=O)[C@H]4C[C@H](O)CC[C@@]43C)[C@@H]2CC[C@]12O[C@@H]1C[C@H](C)CN[C@H]1[C@H]2C`: 15 µM, 29 µM, 73% and 53%.
`C[C@H]1CC[C@@H]2[C@H](C)[C@@H]3CC[C@@H]4[C@@H](C[C@H]5[C@H]4CC(=O)[C@H]4C[C@@H](O)CC[C@@]45C)[C@@H]3CN2C1`: the CC50 in the assay with A549 was determined as 6.8 µM; in the assay with NCI-H460, 25 µM. Besides, the Activity in the assay on RAW264.7 worked out at 62%; in the assay on H9c2 it was 5.4%.
For `C[C@@H]1CC[C@H]2[C@H](C)[C@H]3CC[C@@H]4[C@@H](C[C@H]5[C@H]4CC(=O)[C@H]4C[C@@H](O)CC[C@@]45C)[C@H]3CN2C1`, the CC50 in the assay on A549 amounted to 43 µM; in the assay on NCI-H460, 54 µM. Also, the Activity in the assay with RAW264.7 was 44%; with H9c2, 24%.
The matching figures for `C[C@@H]1CC[C@H]2[C@H](C)[C@H]3CC[C@@H]4[C@@H](C[C@H]5[C@H]4CC(=O)[C@H]4C[C@@H](O)CC[C@@]45C)[C@@H]3C[N+]2([O-])C1` (stereo not given in full): 21 µM, 37 µM, 0.9% and 29%.
For `C[C@H]1CC[C@@H]2[C@H](C)[C@@H]3CC[C@@H]4[C@@H](C[C@H]5[C@H]4C[C@@H](O)[C@H]4C[C@@H](O)CC[C@@]45C)[C@@H]3CN2C1` the same measures were 10 µM, 12 µM, 27% and 33%.
